# In ChEMBL document CHEMBL1123008, “Synthesis and antinociceptive activity of 4-(cyclopropylmethyl)-3,4,5,6-tetrahydro-2H-1,5-methano-1, 4-benzodiazocin-9-amine and congeners” (1985):
# What was measured:
# Format in all cases: functional
# Rattus norvegicus [1] = assay: In vivo narcotic antagonist activity in rat after subcutaneous administration at 60 mg/kg & lethal at 120 mg/kg
# Rattus norvegicus [2] = assay: In vivo narcotic antagonist activity by rat phenazocine antagonism test through subcutaneous administration
# Mus musculus [3] = assay: Maximum analgesic agonist activity obtained by mouse acetylcholine writhing test through subcutaneous administration at 75 mg/kg; conditions: sc
# Mus musculus [4] = assay: Analgesic agonist activity by mouse acetylcholine writhing test through subcutaneous administration; conditions: sc
# Rattus norvegicus [5] = assay: In vivo narcotic antagonist activity in rat after subcutaneous administration at 80 mg/kg; conditions: sc
# Rattus norvegicus [6] = assay: Analgesic agonist activity by rat tail-flick test through subcutaneous administration; Inactive at 120 mg/kg; conditions: sc
# Rattus norvegicus [7] = assay: In vivo narcotic antagonist activity by AD50 vs. morphine through oral administration
# Rattus norvegicus [8] = assay: In vivo narcotic antagonist activity by AD50 vs. meperidine through subcutaneous administration
# Rattus norvegicus [9] = assay: In vivo narcotic antagonist activity in rat after oral administration of the compound
# Rattus norvegicus [10] = assay: In vivo narcotic antagonist activity by rat phenylquinone test through subcutaneous administration; conditions: sc
# Rattus norvegicus [11] = assay: Analgesic agonist activity by rat tail-flick test through oral administration; Inactive at 200 mg/kg
# Rattus norvegicus [12] = assay: In vivo narcotic antagonist activity by AD50 vs. morphine through subcutaneous administration
# Rattus norvegicus [13] = assay: In vivo narcotic antagonist activity by AD50 vs. meperidine through oral administration
# Rattus norvegicus [14] = assay: In vivo narcotic antagonist activity by rat phenylquinone test through oral administration
# Rattus norvegicus [15] = assay: In vivo narcotic antagonist activity in rat after subcutaneous administration of the compound
# Rattus norvegicus [16] = species: Rattus norvegicus; assay: animal or person; conditions: in Mus musculus, sc
# Rattus norvegicus [17] = assay: In vivo narcotic antagonist activity by rat phenazocine antagonism test through subcutaneous administration at 10 mg/kg
# Rattus norvegicus [18] = assay: In vivo narcotic antagonist activity in rat after subcutaneous administration at 10 mg/kg & convulsions at 20 mg/kg; conditions: sc
# Rattus norvegicus [19] = assay: In vivo narcotic antagonist activity by rat phenazocine antagonism test through oral administration
# Rattus norvegicus [20] = assay: Analgesic agonist activity by rat intracarotid bradykinin writhing test through subcutaneous administration; conditions: sc
smiles,measurement,setting,value
CCNc1ccc2c(c1)N1CCN(CC3CC3)C(C2)C1.Cl (stereo not given),Inhibition,Rattus norvegicus [1],17%
same,AD50,Rattus norvegicus [2],4.4 mg/kg
Nc1ccc2c(c1)N1CCN(CC3CC3)[C@@H](C2)C1,inhibition in vivo at 75 mg/kg,Mus musculus [3],67%
same,ED50,Mus musculus [4],40 mg/kg
same,inhibition in vivo at 80 mg/kg,Rattus norvegicus [5],25%
Nc1ccc2c(c1)N1CCN(CC3CC3)C(C2)C1 (stereo not given),ED50,Rattus norvegicus [6],1 mg/kg
same,AD50,Rattus norvegicus [7],13 mg/kg
same,AD50,Rattus norvegicus [8],3.3 mg/kg
same,AD50,Rattus norvegicus [9],3.5 mg/kg
same,ED50,Rattus norvegicus [10],1.8 mg/kg
same,AD50,Rattus norvegicus [2],1.6 mg/kg
same,ED50,Rattus norvegicus [11],1 mg/kg
same,AD50,Rattus norvegicus [12],8.6 mg/kg
same,AD50,Rattus norvegicus [13],4.8 mg/kg
same,ED50,Rattus norvegicus [14],5.7 mg/kg
C=CCN1CCN2CC1Cc1ccc(N)cc12.CCS(=O)(=O)O (stereo not given),AD50,Rattus norvegicus [15],1.6 mg/kg
CCS(=O)(=O)O.c1ccc2c(c1)CC1CN2CCN1CC1CC1 (stereo not given),ED50,Rattus norvegicus [6],1 mg/kg
same,AD50,Rattus norvegicus [15],34 mg/kg
CN1CC[C@]23c4c5ccc(O)c4O[C@H]2[C@@H](O)C=C[C@H]3[C@H]1C5.CN1CC[C@]23c4c5ccc(O)c4O[C@H]2[C@@H](O)C=C[C@H]3[C@H]1C5.O=S(=O)(O)O,ED50,Rattus norvegicus [16],0.21 mg/kg
CCCCNc1ccc2c(c1)N1CCN(CC3CC3)C(C2)C1 (stereo not given),AD50,Rattus norvegicus [17],1 mg/kg
same,ED50,Rattus norvegicus [18],1 mg/kg
Oc1ccc2c(c1)N1CCN(CC3CC3)C(C2)C1 (stereo not given),AD50,Rattus norvegicus [19],3.2 mg/kg
same,AD50,Rattus norvegicus [2],0.02 mg/kg
same,ED50,Mus musculus [4],10 mg/kg
same,ED50,Rattus norvegicus [20],37 mg/kg
Nc1ccc2c(c1)N1CCN(CC3CC3)[C@H](C2)C1,ED50,Mus musculus [4],1 mg/kg
same,AD50,Rattus norvegicus [15],0.31 mg/kg
C=CCN1CC[C@]23c4c5ccc(O)c4O[C@H]2[C@@H](O)C=C[C@H]3[C@H]1C5.Cl [NALORPHINE HYDROCHLORIDE],ED50,Rattus norvegicus [16],2.8 mg/kg
same,AD50,Rattus norvegicus [15],0.032 mg/kg
same,ED50,Rattus norvegicus [20],0.24 mg/kg
